Results from patent US20090312373A1, “METHODS FOR THE TREATMENT OF CANCER USING PIPERLONGUMINE AND PIPERLONGUMINE ANALOGS” (The General Hospital Corporation, priority 2008, published 2009).
“Also recorded” adds a separate entry of the source.

Assays:
Twist = Twist expression in U2OS and EJ cells; format: cell-based, human; conditions: 10 μM, 6 and 12 hours
Procedure: (§1) U2OS cells and EJ cells were exposed to piperlongumine (10 μM) and aliquots of the cells were taken at 6 and 12 hours and lysed to determine the level of Twist expression. […] HCT116 cells (p53-wt cells) were exposed to piperlongumine and aliquots of the cells were taken at 6 and 12 hours and lysed to determine the level of CDIP expression. […] U2OS cells (p53-wt cells) and EJ cells (non-functional p53) were exposed to various concentrations of piperlongumine (piper) and aliquots of the cells were lysed to determine the level of survival protein expression.

p53 [1] = test: Western blot of p53 and p53 target expression in human cancer cells; format: cell-based
From the text: Thus, piperlongumine is a p53 activator as well as an activator for proapoptotic targets.

[2] = tested on: patient-derived colon cancer tumor samples; test: Histoculture Drug Response Assay (HDRA), colon; format: cell-based, human
From the text: (§2) Piperlongumine (SP2007) was compared to a variety of known anti-cancer agents in a Histoculture Drug Response Assay (HDRA). HDRA is an assay that provides a reliable approach to determine the profile of in vivo chemo-sensitivity in cancer patients. The assay allows for a three-dimensional culture, the testing of patient tumor sensitivity, the evaluation of treatment option for individual patients with solid tumor types and a high correlation to clinical drug sensitivity (Flowers J L et al., Cancer Chemother. Pharmacol. 2003 September 52 (3): 253-261). The assays were performed by Anti-cancer Inc., (San Diego, Calif.). An average of twenty samples was tested for each tumor type.

[3] = tested on: survival proteins (Bc12, Survivin, XAIP); test: Exon gene array and Western blot of survival proteins in U2OS and EJ cells; format: cell-based, human; conditions: variety of concentrations
Procedure: Downstream target genes of piperlongumine (CT-007) were identified using an human exon gene array analysis of U2OS and EJ cancer cell lines (FIG. 12). In addition, the results from the gene array analysis were confirmed by Western blot (FIG. 13; See also Example 12 below).
as §1

[4] = tested on: immortalized human breast epithelial cells; test: DNA damage markers in immortalized human breast epithelial cells; format: cell-based; conditions: taxol 10 nM
From the text: The conditions and time of exposure are indicated in the legend of the figure.

[5] = tested on: patient-derived osteocarcoma samples; test: Histoculture Drug Response Assay (HDRA), osteosarcoma; format: cell-based, human
From the text: as §2

[6] = tested on: Twist, N-cadherin and p120 catenin; test: Western blot of Twist, N-cadherin and p120 catenin in EJ and U2OS cells; format: cell-based, human; conditions: 10 μM and 20 μM, 20 hours
Procedure: A scheme for piperlongumine (SP2007)-mediated repression of Twist expression and its downstream targets that are involved in tumor invasion/metastasis is presented in FIG. 39A. […] U2OS and EJ cells were treated with SP2007 at two concentrations (10 μM and 20 μM) as well as with DMSO as a solvent control. After 20 hours, cell lysates were extracted and western blotting was performed against Twist, N-cadherin and p120 catenin (Zymed and Sigma Aldrich). […] Female MMTV-PyVT mice at 8-9 weeks age were chosen for the studies. When tumor sizes grew to ˜5-6 mm in diameter, SP2007 or DMSO was administered intraperitoneally (I.P., total 2.4 mg/kg of SP2007) daily for two weeks. After two weeks treatment, mice were sacrificed and mammary tumors excised and processed for histological examination.

[7] = Long-term piperlongumine treatment toxicity in mice; format: in vivo, mouse; conditions: 2.4 mg/kg injected multiple times for 4 weeks
Procedure: Piperlongumine (2.4 mg/kg) was injected into mice (8 mice per group) multiple times for 4 weeks. […] After 4 weeks the mice were killed and examined for changes in gross histology in target organs.

p53 [8] = test: p53 acetylation Western blot in U2OS cells; format: cell-based, human; conditions: 6 hours
Procedure: U2OS cells were treated with piperlongumine (SP), the HDAC inhibitor TSA (trichostatin A ([…])) or the control DMSO for 6 hours. Cell extracts were fractionated in SDS-PAGE gel and analyzed by western blot.

[9] = tested on: mouse B16-F10 melanoma cells; test: B16-F10 mouse melanoma in B6 wild type mice; format: in vivo; conditions: 28 ug i.p. every 48 hours for 12 days (total 1.2 mg/kg); compared to DMSO
Procedure: We tested the effectiveness of piperlongumine in wild type mice using mouse B16-F10 melanoma cells. A total 2×10^6 cells were implanted subcutaneously on opposite site flanks in each of 12 B6 wild type mice in each group. When tumor masses grew to ˜5-10 mm in diameter, piperlongumine was administered intraperitoneally (28 ug per each intraperitoneal administration, total 1.2 mg/kg) every 48 hours for 12 days (6 times total).

lung cancer tumors = test: Lung tumor model in mice; format: in vivo, mouse
[10] = tested on: EJ bladder carcinoma cells and HCT116 colon carcinoma cells; test: Cell death in transformed cancer cells; format: cell-based, human; conditions: 2.5 μM and 10 μM
breast cancer tumors = test: Breast tumor in mice; format: in vivo, mouse
Procedure: We tested piperlongumine in colon tumor, breast, melanoma or bladder tumor xenograft-bearing mice to evaluate the anti-tumor effect of piperlongumine. We examined EJ human bladder cancer cell xenografts (non-functional p53) to evaluate anti-tumor effects. A total of 2×10^6 EJ cells or SW480 cells were implanted subcutaneously on opposite site flanks in each of six nude/nude mice in each group. When tumor masses grew to ˜5-10 mm in diameter, piperlongumine was administered intraperitoneally (28 ug per each intraperitoneal administration, total 1.2 mg/kg) every 48 hours for 12 days (6 times total).

[11] = tested on: drug-resistant A549 lung cancer cell lines; test: Tumor cell killing in drug-resistant A549 lung cancer cell lines; format: cell-based, human
Procedure: The tumor growth inhibitory effect of piperlongumine was evaluated in a variety of human cancer cell lines. Cells were grown in ˜50-70% confluency and treated with piperlongumine and known anti-cancer agents at various concentrations (0.1-30 μM) and analyzed for cell death or viability by SRB (Sulforhodamine B) staining assay. The SRB assay is a well established assay that is used for the detection of cell death, viability or proliferation in drug screening.
Tumor cell killing by piperlongumine was also tested in drug-resistant A549 lung cancer cell lines and compared to known anti-cancer agents (see FIG. 19).

## COc1cc(/C=C/C(=O)N2CCC=CC2=O)cc(OC)c1OC [piperlongumine, N-(3,4,5,-trimethoxycinnamoyl)-Δ^3-piperidine-2-one]
Twist
  Twist expression: inhibits the expression of Twist
p53 [1]; human cancer cells
  Puma expression: significantly induced
p53 [1]; relatively low concentrations, U2OS and HCT116 human cancer cells
  p53 expression (Western blot): significantly induced
[2]
  growth of patient-derived tumor samples: inhibits growth
[3]
  levels of expression of survival proteins: significantly repressed; also recorded: inhibits the expression of survival proteins
[4]
  phosphorylated gamma-H2AX and p53: does not result in the induction
[5]
  growth of patient-derived tumor samples: inhibits growth
[6]
  expression of Twist, N-cadherin and p120 catenin: inhibits expression
[7]
  mortality: None of the mice died
[7]; hematoxilin and eosin staining
  gross histology in kidney, liver and lung: no change in gross histology
p53 [8]
  amount of acetylated p53: increased the amount of acetylated p53 to a level similar to TSA treated cells
p53 [8]; TSA 10 mM
  total amount of p53: did result in an increased
[9]
  anti-tumor effect: significant anti-tumor effects
Lung cancer tumors
  killing of lung cancer tumors: effective killing
[10]
  cell death in transformed cancer cells: induced cell death
Breast cancer tumors
  killing of breast cancer tumors: effective killing
[11]
  tumor cell growth inhibition compared to other anti-cancer drugs: more effective
